Experimental data as given in ChEMBL document CHEMBL1127537, “Synthesis and characterization of [125I]-N-(N-benzylpiperidin-4-yl)-4- iodobenzamide, a new sigma receptor radiopharmaceutical: high-affinity binding to MCF-7 breast tumor cells” (J Med Chem, 1994).

What was measured:
[1] = target: Sigma 2 receptor; test: Binding affinity against sigma-2 receptor in rat liver using radioligand [3H]DTG in the presence of dextrallorphan.
[2] = target: D(2) dopamine receptor (Rattus norvegicus, UniProt P61169); test: Binding affinity against D-2 dopamine receptor in rat brain membranes using [3H](-)-sulpiride as radioligand.; type: cell membranes
[3] = target: Glutamate NMDA receptor; test: Binding affinity against phencyclidine receptor in rat brain membranes using radioligand [3H]TCP.; type: cell membranes
[4] = target: Muscarinic acetylcholine receptor; test: Binding affinity against muscarinic receptor in rat brain membranes using radioligand [H}QNB.; type: cell membranes

Chain of D(2) dopamine receptor (P61169 whole entry): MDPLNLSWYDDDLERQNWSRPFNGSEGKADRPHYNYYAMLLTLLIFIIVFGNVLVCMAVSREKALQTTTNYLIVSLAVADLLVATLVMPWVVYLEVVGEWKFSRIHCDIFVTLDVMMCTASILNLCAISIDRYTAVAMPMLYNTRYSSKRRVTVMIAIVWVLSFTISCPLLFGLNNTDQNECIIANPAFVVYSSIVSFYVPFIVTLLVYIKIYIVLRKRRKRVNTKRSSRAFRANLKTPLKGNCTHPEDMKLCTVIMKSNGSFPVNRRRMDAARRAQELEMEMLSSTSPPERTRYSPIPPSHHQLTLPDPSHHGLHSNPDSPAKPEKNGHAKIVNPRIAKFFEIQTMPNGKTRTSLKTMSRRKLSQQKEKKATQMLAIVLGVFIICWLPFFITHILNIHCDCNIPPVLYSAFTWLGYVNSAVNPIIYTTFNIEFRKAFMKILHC

Ki [1] [nM]	Ki [2] [nM]	Ki [3] [nM]	Ki [4] [nM]	Compound
25.2	382	> 100000	> 100000	O=C(NC1CCN(Cc2ccccc2)CC1)c1ccc(I)cc1
84.6	24.8	> 100000	> 100000	O=C(NC1CCN(Cc2ccccc2)CC1)c1cccc(I)c1
29.6	63.4	> 100000	> 100000	O=C(NC1CCN(Cc2ccccc2)CC1)c1ccccc1I
